Where only a bound is given, the exact number is not on record here.

Here are results for 19 compounds from US9670204B2, “Compounds and pharmaceutical compositions thereof for the treatment of inflammatory disorders” (Galapagos NV, priority 2013, dated 2017).

The target in this experiment is hENPP2 (UniProtKB/SwissProt Q13822) (Homo sapiens (Human), UniProt Q13822). The experiment can be described thus: hENPP2 biochemical assay, LPC as substrate. Conditions: LPC (palmitoyl 16:0) as substrate. The procedure:
The principle of the assay consists in quantifying the released choline with an enzymatic method using choline oxidase and peroxidase. Choline oxydation by choline oxydase releases betaine and peroxide. The latter is quantified in presence of HRP that converts the peroxide detection agent TOOS and 4-aminoantipyrine into quinoneimine dye. The appearance of quinoneimine dye is measured spectrophotometrically at 555 nm and is proportional to the amount of choline released by ENPP2. Inhibition of ENPP2 will result in a decrease of the signal.
Compound IC50 values are determined in a hENPP2 (UniProtKB/SwissProt Sequence ref Q13822) biochemical assay using LPC as substrate.
The enzyme is diluted in 50 mM Tris-HCl pH 8.5, 500 mM NaCl, 5 mM KCl, 10 mM CaCl2, 0.1% fatty acid free BSA in a total volume of 10 μL. the reaction is started by the addition of 10 μL of 150 μM LPC (palmitoyl 16:0) diluted in the same buffer as described above and the mixture is incubated at 37° C. for 30 min. The reaction is terminated and choline quantified by the addition of a 25 μL of a mixture containing 0.6 U/mL of choline oxidase, 0.6 U/mL of peroxydase, 1.8 mM TOOS, 1.2 mM amino-antipyrine, 20 mM EGTA (stop-developer solution) diluted in the buffer described above. […] is read on the Envision after an incubation of 30 min at room temperature (Excitation 555 nm, excitation light=70%).
One may read the IC50 as the point on the concentration scale where inhibition reaches its midpoint. The compound `CCc1nc2ccc(N3CC(NCC(=O)N4CC(O)C4)C3)cn2c1N(C)c1nc(-c2ccc(F)cc2)cs1` [Compound 178, 2-(1-(2-ethyl-3-((4-(4-fluorophenyl)thiazol-2-yl)(methyl)amino)imidazo[1,2-a]pyridin-6-yl)azetidin-3-ylamino)-1-(3-hydroxyazetidin-1-yl)ethanone] registered an IC50 of 100 to 500 nM. Under `CCc1nc2ccc(N3CCN(C(=O)C4CCN(C(=O)OC(C)(C)C)C4)CC3)cn2c1N(C)c1nc(-c2ccc(F)cc2)cs1` (stereo not shown) [Compound 45, tert-butyl 3-(4-(2-ethyl-3-((4-(4-fluorophenyl)thiazol-2-yl)(methyl)amino)imidazo[1,2-a]pyridin-6-yl)piperazine-1-carbonyl)pyrrolidine-1-carboxylate] stands > 1000 nM. In turn, `CCc1nc2ccc(C3CCN(CC(=O)N4CCC(CO)C4)CC3)cn2c1N(C)c1nc(-c2ccc(F)cc2)cs1` (stereo not shown) [Compound 117, 2-(4-(2-ethyl-3-((4-(4-fluorophenyl)thiazol-2-yl)(methyl)amino)imidazo[1,2-a]pyridin-6-yl)piperidin-1-yl)-1-(3-(hydroxymethyl)pyrrolidin-1-yl)ethanone] returned an IC50 of 100 to 500 nM. Under `CCc1nc2ccc(C3CCN(C[C@H]4CNC(=O)O4)CC3)cn2c1N(C)c1nc(-c2ccc(F)cc2)cs1` [Compound 196, (R)-5-((4-(2-ethyl-3-((4-(4-fluorophenyl)thiazol-2-yl)(methyl)amino)imidazo[1,2-a]pyridin-6-yl)piperidin-1-yl)methyl)oxazolidin-2-one] stands > 1000 nM; under `CCc1nc2ccc(N3CCNCC3)cn2c1N(C)c1nc(-c2ccc(F)cc2C#N)c(C)s1` [Compound 161, 2-(2-((2-ethyl-6-(piperazin-1-yl)imidazo[1,2-a]pyridin-3-yl)(methyl)amino)-5-methylthiazol-4-yl)-5-fluorobenzonitrile], > 1000 nM. To `CCc1nc2ccc(N3CCN(C(=O)C4CC(=O)N(Cc5ccccc5)C4)CC3)cn2c1N(C)c1nc(-c2ccc(F)cc2)cs1` (stereo not shown) [Compound 205, 1-Benzyl-4-[4-(2-ethyl-3-{[4-(4-fluoro-phenyl)-thiazol-2-yl]-methyl-amino}-imidazo[1,2-a]pyridin-6-yl)-piperazine-1-carbonyl]-pyrrolidin-2-one] belongs 500 to 1000 nM; to `CN(C)C(=O)CN1CCC(c2ccc3nc(CCC(N)=O)c(N(C)c4nc(-c5ccc(F)cc5)cs4)n3c2)CC1` [Compound 176, 3-(6-(1-(2-(dimethylamino)-2-oxoethyl)piperidin-4-yl)-3-((4-(4-fluorophenyl)thiazol-2-yl)(methyl)amino)imidazo[1,2-a]pyridin-2-yl)propanamide], > 1000 nM; to `CCc1nc2ccc(C3CCN(CC(=O)N4CCCC4)CC3)cn2c1N(C)c1nc(-c2ccc(F)cc2)c(CO)s1` [Compound 151, 2-(4-(2-ethyl-3-((4-(4-fluorophenyl)-5-(hydroxymethyl)thiazol-2-yl)(methyl)amino)imidazo[1,2-a]pyridin-6-yl)piperidin-1-yl)-1-(pyrrolidin-1-yl)ethanone], 500 to 1000 nM. To `CCc1nc2ccc(C3CCN(C(=O)CN(C)C)CC3)cn2c1N(C)c1nc(-c2ccc(F)cc2)cs1` [Compound 129, 2-(dimethylamino)-1-(4-(2-ethyl-3-((4-(4-fluorophenyl)thiazol-2-yl)(methyl)amino)imidazo[1,2-a]pyridin-6-yl)piperidin-1-yl)ethanone] belongs 100 to 500 nM; to `CCc1nc2ccc(N3CCN(CC(=O)N4CCC4)CC3)cn2c1N(C)c1nc(-c2ccc(F)cc2)cs1` [Compound 30, 1-(azetidin-1-yl)-2-(4-(2-ethyl-3-((4-(4-fluorophenyl)thiazol-2-yl)(methyl)amino)imidazo[1,2-a]pyridin-6 yl)piperazin-1-yl)ethanone], 0.01 to 100 nM. For the compound `[2H]C([2H])([2H])N(c1nc(-c2ccc(F)cc2)cs1)c1c(CC)nc2ccc(C3CCN(S(C)(=O)=O)CC3)cn12` [Compound 102, 4-(4-fluorophenyl)-N-(2-ethyl-6-(1-(methylsulfonyl)piperidin-4-yl)imidazo [1,2-a]pyridin-3-yl)-N-(d3-methyl)thiazol-2-amine], the IC50 was > 1000 nM. To `CCc1nc2ccc(N3CCN(CC(=O)NC)CC3)cn2c1N(C)c1nc(-c2ccc(F)cc2C#N)cs1` [Compound 169, 2-(4-(3-((4-(2-cyano-4-fluorophenyl)thiazol-2-yl)(methyl)amino)-2-ethylimidazo[1,2-a]pyridin-6-yl)piperazin-1-yl)-N-methylacetamide] belongs 0.01 to 100 nM; to `CCc1nc2ccc(C3CCN(S(C)(=O)=O)CC3)cn2c1N(C)c1nc(-c2ccc(OC(F)(F)F)cc2)c(CO)s1` [Compound 148, (2-((2-ethyl-6-(1-(methylsulfonyl)piperidin-4-yl)imidazo [1,2-a]pyridin-3-yl)(methyl)amino)-4-(4-(trifluoromethoxy)phenyl)thiazol-5-yl) methanol], > 1000 nM. `CCc1nc2ccc(C3CCN(C[C@@H]4CNC(=O)O4)CC3)cn2c1N(C)c1nc(-c2ccc(F)cc2)cs1` [Compound 197, (S)-5-((4-(2-ethyl-3-((4-(4-fluorophenyl)thiazol-2-yl)(methyl)amino)imidazo[1,2-a]pyridin-6-yl)piperidin-1-yl)methyl)oxazolidin-2-one]: the IC50 was > 1000 nM.

`CCc1nc2ccc(N3CCN(CC(=O)N4CC(CO)C4)CC3)cn2c1N(C)c1nc(-c2ccc(F)cc2)c(C#N)s1` [Compound 139, 2-((2-ethyl-6-(4-(2-(3-(hydroxymethyl)azetidin-1-yl)-2-oxoethyl)piperazin-1-yl)imidazo[1,2-a]pyridin-3-yl)(methyl)amino)-4-(4-fluorophenyl) thiazole-5-carbonitrile] showed a concentration for half-maximal inhibition (IC50) of 0.01 to 100 nM. Under `CCc1nc2ccc(C3CCN(S(C)(=O)=O)CC3)cn2c1N(C)c1nc(-c2ccc(F)cc2C#N)c(C)s1` [Compound 97, 2-(2-((2-ethyl-6-(1-(methylsulfonyl)piperidin-4-yl)imidazo [1,2-a]pyridin-3-yl)(methyl)amino)-5-methylthiazol-4-yl)-5-fluorobenzonitrile] stands 100 to 500 nM. Consider `CCc1nc2ccc(C3=CCN(S(C)(=O)=O)CC3)cn2c1N(C)c1nc(-c2ccc(C(C)(C)C)cc2)cs1` [Compound 70, 4-(4-tert-butylphenyl)-N-(2-ethyl-6-(1-(methylsulfonyl)-1,2,3,6-tetrahydropyridin-4-yl)imidazo[1,2-a]pyridin-3-yl)-N-methylthiazol-2-amine], for which the IC50 is > 1000 nM. With `CCc1nc2ccc(N3CCN(CC(=O)N4CC(CO)C4)CC3)cn2c1N(C)c1nc(-c2ccc(F)cc2)c(CO)s1` [Compound 146, 2-(4-(2-ethyl-3-((4-(4-fluorophenyl)-5-(hydroxymethyl)thiazol-2-yl)(methyl)amino)imidazo[1,2-a]pyridin-6-yl)piperazin-1-yl)-1-(3-(hydroxymethyl)azetidin-1-yl)ethanone], the IC50 was in the range of 500 to 1000 nM. For the compound `CCc1nc2ccc(N3CCN(CC(=O)N4CC(F)C4)CC3)cn2c1N(C)c1nc(-c2ccc(F)cc2)cs1` [Compound 28, 2-(4-(2-ethyl-3-((4-(4-fluorophenyl)thiazol-2-yl)(methyl)amino)imidazo[1,2-a]pyridin-6-yl)piperazin-1-yl)-1-(3-fluoroazetidin-1-yl)ethanone], the half-maximal inhibitory concentration (IC50) lay within 100 to 500 nM.
